Consider one molecule from the NIST ThermoML archive (doi:10.1016/j.jct.2017.10.011).

Series [1] is described as follows: Molar enthalpy of transition or fusion. To be noted: Crystal 2; DSC.
For series [2] the following is noted: Crystal 2; DSC.

Each structure is given as a SMILES string. Numbers after ± are expanded uncertainties.

Regarding `O=C1COC(=O)CO1` [1,4-dioxane-2,5-dione], the “Molar enthalpy of transition or fusion” value in series [1] came out at 0.422 ± 0.0502 kcal/mol. The Triple point temperature in series [2] was 317.51 ± 2.1 K.
